From patent US20090305993A1, “METHODS AND COMPOSITION FOR THE TREATMENT OF GASTROINTESTINAL DISORDERS” (IRONWOOD PHARMACEUTICALS, INC., priority 2006, published 2009)
Where a SMILES comes first, the peptide text is derived from it. Bridges are numbered along the chain shown (N, C = ends). Where no end group is shown, it is not given here.

How the values were obtained:
carboxypeptidase A = molecular target: T1, carboxypeptidase A (Homo sapiens, UniProt P15085); assay: in vitro proteolytic stability, carboxypeptidase A
T1 sequence (P15085 111-419): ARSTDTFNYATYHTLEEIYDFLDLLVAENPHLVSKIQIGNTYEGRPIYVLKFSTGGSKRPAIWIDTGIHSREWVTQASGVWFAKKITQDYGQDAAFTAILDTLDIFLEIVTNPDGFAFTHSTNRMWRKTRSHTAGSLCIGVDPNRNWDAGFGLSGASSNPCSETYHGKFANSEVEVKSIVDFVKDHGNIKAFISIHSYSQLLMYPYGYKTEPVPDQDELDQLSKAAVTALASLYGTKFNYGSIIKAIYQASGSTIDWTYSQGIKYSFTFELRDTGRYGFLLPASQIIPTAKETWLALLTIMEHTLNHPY
Experimental: The stability of SEQ ID NO:3 in the presence of several mammalian digestive enzymes was determined. SEQ ID NO:3 was exposed to a variety of in vitro conditions including digestive enzymes and low ph environments designed to simulate gastric fluid. SEQ ID NO:3 was incubated with chymotrypsin, trypsin, pepsin, aminopeptidase, carboxypeptidase A, and simulated gastric fluid (sgf) at ph 1.0. Samples were collected at 0, 3, and 24 h for all conditions except pepsin digestion and the SGF. For the latter two conditions, samples were obtained at 0, 1, and 3 h. Negative control samples were prepared for initial and final time points. A separate, positive activity control was run in parallel to SEQ ID NO:3. All samples were analyzed by LC/MS
Five (5) μL of a 40 μg/mL carboxypeptidase inhibitor (carboxypeptidase inhibitor from potato tuber (Sigma-Aldrich, C0279) stock was added to each control sample (0 and 24 h), for a final concentration of 0.4 μg/mL. All control and test (0, 3 and 24 h) samples were incubated at 37° C. for 5 min. Twenty (20) μL of a 0.01 mg/mL carboxypeptidase A (Carboxypeptidase A from human pancreas; Sigma-Aldrich, C5358) stock was added to each sample. The samples were returned to the 37° C. water bath. The reaction was quenched with 5 μL of a 40 μg/mL carboxypeptidase inhibitor at the proper time point. No extra carboxypeptidase inhibitor was added to the control samples since there was already inhibitor present. Samples were subsequently flash frozen in liquid nitrogen, and stored at −80° C. until analysis. Upon analysis, samples were thawed and transferred to a 1 mL 96-well deep microtiter plate. […] These standards were used to generate a standard curve for quantification of samples. When necessary, the standard curves were also used to calculate the concentration of the corresponding digestion product. Ten (10) μL injections were made of each sample and standard.
To further study the SEQ ID NO:3 carboxypeptidase A digestion product, samples of 0.01 mg/mL SEQ ID NO:3 were prepared in the carboxypeptidase A reaction buffer at a total volume of 500 μL in 2 mL eppendorf tubes. Triplicate samples were prepared for the following time points: 0, 15, 30, 60, 120, 180 and 240 min. The samples were incubated at 37° C. for 5 min. Twenty (20) μL of a 0.01 mg/mL carboxypeptidase A stock were added to each sample and returned to the 37° C. water bath. The reactions were quenched with 5 μL of a 40 μg/mL carboxypeptidase inhibitor at the proper time points. Samples were subsequently flash frozen in liquid nitrogen, and stored at −80° C. until analysis. Upon analysis, samples were thawed and transferred to a 1 mL 96-well plate. Standards of SEQ ID NO:3 were prepared in carboxypeptidase A reaction buffer at 0.625, 1.25, 2.50, 5.00, and 10.00 μg/mL concentrations. These standards were used to generate a standard curve for quantification of samples. When necessary, the standard curves were also used to calculate the concentration of the corresponding digestion product. Ten (10) μL injections were made of each sample and standard. If the formation of a digestion product was evident, then a spectral analysis was used to determine the mass of the digestion product, and predict its possible identity.

[1] = oral bioavailability in rats, LCMS; format: in vivo, rat; settings: plasma
Experimental: Similarly, oral bioavailability was determined in rats using LCMS methodology. Rat plasma samples containing SEQ ID NO:3 and/or SEQ ID NO:6 were extracted using a Waters Oasis MAX 96 well solid phase extraction (SPE) plate. A 200 μL volume of rat plasma was mixed with 200 μL of ^13C9, ^15N—SEQ ID NO:3 in the well of a prepared SPE plate. The samples were drawn through the stationary phase with 15 mm Hg vacuum. All samples were rinsed with 200 μL of 2% ammonium hydroxide in water followed by 200 μL of 20% methanol in water. The samples were eluted with consecutive 100 μL volumes of […] formic acid/water/methanol and 100 μL 5/15/80 formic acid/water/methanol. The samples were dried under nitrogen and resuspended in 100 μL of 20% methanol in water. Samples were analyzed by a Waters Quattro Micro mass spectrometer coupled to a Waters 1525 binary pump with a Waters 2777 autosampler. A 40 μL volume of each sample was injected onto a Thermo Hypersil GOLD C18 column (2.1×50 mm, 5 um). SEQ ID NO:3 and SEQ ID NO:6 were eluted by a gradient over 3 minutes with acetonitrile and water containing 0.05% trifluoroacetic acid. The Quattro Micro mass spectrometer was run in multiple reaction monitoring (MRM) mode using the mass transitions of 764>182 and 682>136 for SEQ ID NO:3 and SEQ ID NO:6 respectively. Using this methodology, SEQ ID NO:3 was dosed orally and by IV to rats at 10 mg/kg. […] In this experiment, the limit of detection (LOD) for SEQ ID NO:6 was 0.78 nM. SEQ ID NO:6 was detected at all time points for the intravenous dose and was not detected beyond 240 min for the oral dose. For non-detected values, the LOD was used as an upper estimate of the concentration of SEQ ID NO:6. The calculated value for AUCp.o., (0-6h) was <1308 nM-min and AUCi.v.,(0-6h) was 1,590,000 nM-min. The 6 h bioavailability of SEQ ID NO:6 determined by circulating plasma levels was 0.08%

CD1 female mice = assay: murine gastrointestinal transit assay, chronic dosing; format: in vivo, mouse; settings: oral, daily for 5 days; SEQ ID NO:3 0.06 or 0.25 mg/kg; FIG. 4c
Experimental: The identical experiment was performed to determine if SEQ ID NO:3 is effective in a chronic dosing treatment regimen. Briefly, 8 week old CD1 female mice are dosed orally once a day for 5 days with either SEQ ID NO:3 (0.06 mg/kg or 0.25 mg/kg in 20 mM Tris pH 7.5) or vehicle alone (20 mM Tris pH 7.5). On the 5th day, a GIT assay is performed identical to that above except 200 μl of a 10% charcoal solution is administered. […] The results are shown side by side with acute dosing (1 day).

mice = assay: murine gastrointestinal transit (GIT) assay, acute dosing; format: in vivo, mouse; settings: for gastrointestinal transit rate: oral, SEQ ID NO:4 0.1 mg/kg, Zelnorm 0.1 mg/kg, FIG. 3a, 3b; for intestinal transit rate versus dosage: recombinantly synthesized peptides, FIG. 4a
Experimental: In order to determine whether the peptides increase the rate of gastrointestinal transit, the peptides and controls were tested using a murine gastrointestinal transit (GIT) assay (Moon et al. Infection and Immunity 25:127, 1979). In this assay, charcoal, which can be readily visualized in the gastrointestinal tract is administered to mice after the administration of a test compound. The distance traveled by the charcoal is measured and expressed as a percentage of the total length of the […].
Mice were fasted with free access to water for 12 to 16 hours before the treatment with peptide or control buffer. The peptides were orally administered at 1 μg/kg-1 mg/kg of peptide in buffer (20 mM Tris pH 7.5) 7 minutes before being given an oral dose of 5% Activated Carbon (Aldrich 242276-250G). Control mice were administered buffer only before being given a dose of Activated Carbon. After 15 minutes, the mice were sacrificed and their intestines from the stomach to the cecum were dissected. The total length of the intestine as well as the distance traveled from the stomach to the charcoal front was measured for each animal and the results are expressed as the percent of the total length of the intestine traveled by the charcoal front. All results are reported as the average of 10 mice±standard deviation. A comparison of the distance traveled by the charcoal between the mice treated with peptide versus the mice treated with vehicle alone was performed using a Student's t test and a statistically significant difference was considered for P<0.05. P-values are calculated using a two-sided T-Test assuming unequal variances.

suckling mice = assay: suckling mouse model of intestinal secretion (SuMi assay); format: in vivo
Experimental: In this model a test compound is administered to suckling mice that are between 7 and 9 days old. After the mice are sacrificed, the gastrointestinal tract from the stomach to the cecum is dissected (“guts”). The remains (“carcass”) as well as the guts are weighed and the ratio of guts to carcass weight is calculated. If the ratio is above 0.09, one can conclude that the test compound increases intestinal secretion. […] The effect of Zelnorm® was also studied.

intestinal GC-C receptor = molecular target: T2, intestinal GC-C receptor (Homo sapiens, UniProt P25092); assay: intestinal GC-C receptor activity assay (cyclic GMP EIA) in T84 cells; format: cell-based; settings: chemically synthesized peptides, FIGS. 2a and 2b
T2 construct: monolayers of T84 cells in 24-well plates; host or cells: T84 human colon carcinoma cells
T2 sequence (P25092 24-1073): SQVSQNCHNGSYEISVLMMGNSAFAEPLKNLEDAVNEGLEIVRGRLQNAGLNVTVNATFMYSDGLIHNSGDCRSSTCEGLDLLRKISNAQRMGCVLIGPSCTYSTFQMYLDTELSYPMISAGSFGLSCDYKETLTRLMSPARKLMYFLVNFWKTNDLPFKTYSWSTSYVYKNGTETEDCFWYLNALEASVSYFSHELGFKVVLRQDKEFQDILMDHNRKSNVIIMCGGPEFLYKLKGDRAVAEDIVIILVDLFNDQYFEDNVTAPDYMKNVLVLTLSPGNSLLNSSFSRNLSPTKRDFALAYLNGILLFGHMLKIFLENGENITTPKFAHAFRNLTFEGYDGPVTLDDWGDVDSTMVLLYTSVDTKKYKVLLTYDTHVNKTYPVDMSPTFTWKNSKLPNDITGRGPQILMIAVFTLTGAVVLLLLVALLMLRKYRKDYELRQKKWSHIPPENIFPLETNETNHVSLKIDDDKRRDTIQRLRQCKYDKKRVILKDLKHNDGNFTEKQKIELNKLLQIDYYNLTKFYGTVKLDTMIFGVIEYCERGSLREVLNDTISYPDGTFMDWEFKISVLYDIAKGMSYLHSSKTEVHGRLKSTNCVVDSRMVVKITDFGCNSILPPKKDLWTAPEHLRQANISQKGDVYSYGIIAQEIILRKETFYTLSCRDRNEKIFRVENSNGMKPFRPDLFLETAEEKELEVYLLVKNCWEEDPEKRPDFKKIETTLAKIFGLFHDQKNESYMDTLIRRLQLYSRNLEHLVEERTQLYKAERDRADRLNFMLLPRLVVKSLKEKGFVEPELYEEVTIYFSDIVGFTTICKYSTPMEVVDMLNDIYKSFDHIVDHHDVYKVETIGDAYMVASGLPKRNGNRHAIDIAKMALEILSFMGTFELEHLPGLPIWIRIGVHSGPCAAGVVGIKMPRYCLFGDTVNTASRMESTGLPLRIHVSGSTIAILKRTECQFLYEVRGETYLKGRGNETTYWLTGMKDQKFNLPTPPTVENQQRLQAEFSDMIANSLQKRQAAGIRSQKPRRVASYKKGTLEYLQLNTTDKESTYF
Experimental: The ability of SEQ ID NO:5, SEQ ID NO:4, SEQ ID NO:3, and SEQ ID NO:6 to activate the intestinal GC-C receptor was assessed in an assay employing the T84 human colon carcinoma cell line (American Type Culture Collection (Bethesda, Md.)). For the assays cells were grown to confluency in 24-well culture plates with a 1:1 mixture of Ham's F12 medium and Dulbecco's modified Eagle's medium (DMEM), supplemented with 5% fetal calf serum and were used at between passages 54 and 60.
Briefly, monolayers of T84 cells in 24-well plates were washed twice with 1 ml/well DMEM, then incubated at 37° C. for 10 min with 0.45 ml DMEM containing 1 mM isobutylmethylxanthine (IBMX), a cyclic nucleotide phosphodiesterase inhibitor. Test peptides (50 μl) were then added and incubated for 30 minutes at 37° C. The media was aspirated and the reaction was then terminated by the addition of ice cold 0.5 ml of 0.1N HCl. The samples were held on ice for 20 minutes and then evaporated to dryness using a heat gun or vacuum centrifugation.

[2] = molecular target: T3, GC-C receptors found in rat intestinal mucosa (Rattus norvegicus, UniProt P23897); settings: same assay, observed by Giannella et al.; cited from earlier work
T3 construct: Epithelial cells from the small intestine of rats were obtained; from tissue; host or cells: rat small intestine mucosa / epithelial cell suspension
T3 sequence (P23897 23-1072): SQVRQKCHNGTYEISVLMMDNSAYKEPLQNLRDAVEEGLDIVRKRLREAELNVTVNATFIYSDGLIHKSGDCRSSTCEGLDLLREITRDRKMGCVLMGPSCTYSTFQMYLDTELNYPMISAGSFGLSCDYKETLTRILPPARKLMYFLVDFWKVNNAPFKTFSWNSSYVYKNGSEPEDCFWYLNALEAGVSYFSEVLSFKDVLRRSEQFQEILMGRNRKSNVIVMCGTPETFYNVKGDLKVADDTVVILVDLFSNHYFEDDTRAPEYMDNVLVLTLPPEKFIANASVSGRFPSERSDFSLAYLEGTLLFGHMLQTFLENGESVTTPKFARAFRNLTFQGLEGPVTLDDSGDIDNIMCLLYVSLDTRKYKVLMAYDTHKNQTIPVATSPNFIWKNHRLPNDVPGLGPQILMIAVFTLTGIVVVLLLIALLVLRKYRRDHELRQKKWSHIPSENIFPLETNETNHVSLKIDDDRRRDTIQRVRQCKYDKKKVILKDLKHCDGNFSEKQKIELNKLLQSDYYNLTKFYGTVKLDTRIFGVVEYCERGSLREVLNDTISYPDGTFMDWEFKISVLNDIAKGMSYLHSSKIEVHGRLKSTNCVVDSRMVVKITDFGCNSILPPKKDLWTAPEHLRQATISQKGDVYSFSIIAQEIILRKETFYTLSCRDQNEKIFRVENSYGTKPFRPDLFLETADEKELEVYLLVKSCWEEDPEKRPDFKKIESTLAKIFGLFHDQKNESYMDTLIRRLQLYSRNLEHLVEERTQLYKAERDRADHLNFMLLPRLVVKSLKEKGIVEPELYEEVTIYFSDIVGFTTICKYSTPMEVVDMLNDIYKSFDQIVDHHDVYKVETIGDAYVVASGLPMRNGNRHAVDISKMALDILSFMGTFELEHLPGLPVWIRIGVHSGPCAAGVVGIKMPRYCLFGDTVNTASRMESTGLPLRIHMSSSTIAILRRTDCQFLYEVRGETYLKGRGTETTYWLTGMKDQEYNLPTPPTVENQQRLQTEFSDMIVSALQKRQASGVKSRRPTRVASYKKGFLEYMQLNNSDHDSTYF

mouse = assay: phenylbenzoquinone (PBQ)-induced writhing model; settings: oral; SEQ ID NO:5 1 mg/kg, SEQ ID NO:3 2.5 mg/kg; versus vehicle control, FIGS. 8a, 8b
[3] = recombinant peptides, dose response, FIG. 6a

For `C[C@@H]1NC(=O)[C@@H]2CCCN2C(=O)[C@H](CC(N)=O)NC(=O)[C@@H]2CSSC[C@H](N)C(=O)N[C@H]3CSSC[C@H](NC1=O)C(=O)N[C@@H]([C@@H](C)O)C(=O)NCC(=O)N[C@H](C(=O)O)CSSC[C@H](NC(=O)[C@H](Cc1ccc(O)cc1)NC(=O)[C@H](CCC(=O)O)NC3=O)C(=O)N2` [SEQ ID NO:6] (H-CCEYCCNPACTGC-OH; disulfide 1-6, 2-10, 5-13), the average concentration (carboxypeptidase A; carboxypeptidase A digestion of SEQ ID NO:3, T0) was 108 (+/−2) nM, the average concentration (carboxypeptidase A; carboxypeptidase A digestion of SEQ ID NO:3, T240 (240 min)) was 726 (+/−138) nM and the “AUC, intravenous dose (AUCi.v.,(0-6h))” value ([1]; 10 mg/kg IV) was 1,590,000 nM-min. The “AUC, oral dose (AUCp.o.,(0-6h))” value ([1]; 10 mg/kg oral) was < 1308 nM-min.
In the case of `[H]/N=C(/NCCCCC)N/N=C/c1c[nH]c2ccc(OC)cc12` [Zelnorm®, tegaserod, reference compound], the “gastrointestinal motility upon chronic dosing” value (CD1 female mice) is reported as “effective”, the gastrointestinal transit rate (mice) is reported as “increase gastrointestinal transit rate” and the “intestinal secretion (ratio of guts to carcass weight)” value (suckling mice; 0.2 mg/kg) is reported as “does not increase intestinal secretion”.
In the case of NSSNYCCELCCNPACTGCY [SEQ ID NO:4], the “activity in GC-C receptor activity assay” value (intestinal GC-C receptor) is given as “activity comparable to SEQ ID NO:4”, the Kd [2] is given as ~13 nM and the “intestinal transit rates versus Tris buffer and Zelnorm” value (mice; chemically synthesized peptides, FIG. 4b) is given as “increase intestinal transit rates more than either Tris buffer alone or an equivalent dose of Zelnorm®”. For the same compound, the gastrointestinal transit rate (mice) was “increase gastrointestinal transit rate”, the “intestinal transit rate versus dosage” value (mice) was “increases with an increasing dosage” and the “intestinal secretion (ratio of guts to carcass weight)” value (suckling mice; dose response, FIG. 5a, 5b) was “increase intestinal secretion”. The “intestinal secretion (ratio of guts to carcass weight)” value (suckling mice; [3]) was “increase intestinal secretion”.
For “NSSNYCCEYCCNPACTGCY (cysteine pairing not given here) [SEQ ID NO:5]”, the “intestinal transit rate versus dosage” value (mice) was “increases with an increasing dosage”, the “intestinal secretion (ratio of guts to carcass weight)” value (suckling mice; [3]) was “increase intestinal secretion” and the writhings (mouse) was “Significant reductions in writhings”.
